Laboratory results taken from patent publication US9533977B2, “Oxazolidinone derivative as CETP inhibitor, its preparation method, and pharmaceutical composition comprising the same” (DONG-A ST CO., LTD., priority 2013, dated 2017).
Like-named read-outs stand apart in the source and are kept apart here.

What was measured:
CETP [1] = biological target: T1, CETP (Homo sapiens, UniProt P11597); assay: Inhibitory activity against CETP in human plasma (Roar CETP activity kit, fluorescence); format: biochemical; details: plasma from healthy men diluted 1:10 in assay buffer, 37° C., 3 hrs, fluorescence 465/535 nm; read-out: IC50, Inhibition of CETP Activity in Human Plasma
T1 construct: from tissue; host or cells: human plasma from healthy men
T1 sequence (P11597 18-493): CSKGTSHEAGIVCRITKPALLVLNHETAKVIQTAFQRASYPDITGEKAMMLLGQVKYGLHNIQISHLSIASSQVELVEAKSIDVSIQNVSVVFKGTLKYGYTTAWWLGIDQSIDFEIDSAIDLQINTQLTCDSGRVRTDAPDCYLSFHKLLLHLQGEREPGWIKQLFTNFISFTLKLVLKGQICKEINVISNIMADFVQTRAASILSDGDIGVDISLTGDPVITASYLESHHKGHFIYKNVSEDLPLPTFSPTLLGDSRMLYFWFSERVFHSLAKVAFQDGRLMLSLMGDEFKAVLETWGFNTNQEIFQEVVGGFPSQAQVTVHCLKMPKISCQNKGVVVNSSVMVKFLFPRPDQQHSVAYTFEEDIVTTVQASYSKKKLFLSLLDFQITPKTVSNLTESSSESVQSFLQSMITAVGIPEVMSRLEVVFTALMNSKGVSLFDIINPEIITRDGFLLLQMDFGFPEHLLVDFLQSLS
In short: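 Healthy male human plasma, diluted 1:10, incubated 3 hrs at 37° C with donor/acceptor fluorescent substrates and compound (0.01–10000 nM, DMSO). Fluorescence at ex 465/em 535 nm, background-corrected against no-plasma and no-compound wells; IC50 from sigmoidal fit.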

CETP [2] = assay: Effect on CETP activity in hamster administered with single dose; format: in vivo, Golden Syrian hamsters; details: hamsters, single oral dose 100 mg/kg, blood 0.5-24 hrs after administration, compared to pre-treatment
Procedure: Each of the compounds of the Examples was orally administered at a dose of 100 mg/kg to three 7-week-old male Golden Syrian hamsters per group. Blood samples were taken from the retro-orbital plexus before administration and 0.5, 1, 2, 4, 6, 8, and 24 hrs after administration, and measured for blood CETP activity using a Roar CETP activity assay kit (Cat#: RB-CETP, Roar Biomedical Inc.).

Blood HDL-C = Blood HDL-C level in multi-dosed hamsters; format: in vivo, Golden Syrian Hamsters; details: oral 10 mg/kg every day for two weeks, blood two hours after the final administration
Procedure: (§1) Each of the compounds of Examples 58, 96, 103 and 125 was orally administered at a dose of 10 mg/kg to 10 7-week-old male Golden Syrian Hamsters per group, every day for two weeks. Two hours after the final administration, blood samples were taken from the hamsters which then underwent an autopsy to analyze blood lipid levels and drug concentrations in blood and tissues (adipose tissues and liver)

[3] = Drug concentration in blood and tissues of hamsters administered with multiple doses; format: in vivo, Golden Syrian Hamsters; details: oral 10 mg/kg every day for two weeks; for concentration at 2 h: male, Golden Syrian, hamster, two hours after the final administration
Procedure: as §1

[4] = adipose tissue, read-out: Drug Concentration Adipose Tissue
[5] = blood, read-out: Drug Concentration Blood
[6] = liver, read-out: Drug Concentration Liver Tissue

| SMILES | IC50 (CETP [1]) [nM] | concentration at 2 h [3, 4] [ng/g] | concentration at 2 h [3, 5] [µg/mL] | concentration at 2 h [3, 6] [ng/g] | Relative Maximal Inhibition of CETP Activity to Pre-Administration (%) (CETP [2]) | Relative Increase HDL-C (%) to VC (Vehicle) (Blood HDL-C) [%] | Distribution between blood, liver and adipose tissues (in words) [3] |
| --- | --- | --- | --- | --- | --- | --- | --- |
| CCN(C[C@H]1CC[C@H](CC(=O)O)CC1)c1ncc(N2CCCC2)nc1CN1C(=O)OC(c2cc(C(F)(F)F)cc(C(F)(F)F)c2)[C@@H]1C (stereo partly drawn) [Example 103] | 3.26 |  |  |  | 52 | 47 |  |
| CCCN(CC1CCC(CC(=O)O)CC1)c1ncc(C2CC2)nc1CN1C(=O)OC(c2cc(C(F)(F)F)cc(C(F)(F)F)c2)C1C (stereo not drawn) [Example 125] | 40.3 |  |  |  | 56 | 27 |  |
| CCN(c1ncc(-c2c(C)noc2C)nc1CN1C(=O)O[C@H](c2cc(C(F)(F)F)cc(C(F)(F)F)c2)[C@@H]1C)C1CCCCC1 [Example 96, (4S,5R)-5-[3,5-bis(trifluoromethyl)phenyl]-4-methyl-3-({[2-(ethyl)(cyclohexyl)amino]-5-(3,5-dimethyl-isoxazol-4-yl)pyrazin-3-yl}methyl)-oxazolidin-2-one] | 2 | 7900 | 0.309 | 128 | 56 | 48 | at low levels in blood and liver tissues, but at high levels in adipose tissues |
| CCN(CC1CCC(CC(=O)O)CC1)c1ncc(-c2ccsc2)nc1CN1C(=O)OC(c2cc(C(F)(F)F)cc(C(F)(F)F)c2)C1C [Example 105, trans-4-({[3-({(4S,5S)-5-[3,5-bis(trifluoromethyl)phenyl]-4-methyl-2-oxazolidin-3-yl}methyl)-5-(thiophen-3-yl)pyrazin-2-yl]{[N-(ethyl)aminomethyl]cyclohexyl)}acetic acid] | 0.8 |  |  |  | 72 |  |  |
| CCN(c1ncc(-c2c(C)noc2C)cc1CN1C(=O)O[C@H](c2cc(C(F)(F)F)cc(C(F)(F)F)c2)[C@@H]1C)C1CCCCC1 [Example 58, (4S,5R)-5-[3,5-bis(trifluoromethyl)phenyl]-4-methyl-3-({[2-(ethyl)(cyclohexyl)amino]-5-(3,5-dimethylisoxazol-4-yl)pyridin-3-yl}methyl)-oxazoliclin-2-one] | 2.7 | 10200 | 0.606 | 415 | 55 | 47 | at low levels in blood and liver tissues, but at high levels in adipose tissues |
| CCN(c1ncc(-c2csnc2C)cc1CN1C(=O)O[C@H](c2cc(C(F)(F)F)cc(C(F)(F)F)c2)[C@@H]1C)C1CCCCC1 [Example 87, (4S,5R)-5-[3,5-bis(trifluoromethyl)phenyl]-4-methyl-3-({[2-(ethyl)(cyclohexyl)amino]-5-(3-methyl-isothioxazol-4-yl)pyridin-3-yl}methyl)-oxazolidin-2-one] | 5.6 |  |  |  | 59 |  |  |

Second part, led by results:

| IC50 (CETP [1]) [nM] | concentration at 2 h [3, 4] [ng/g] | concentration at 2 h [3, 5] [µg/mL] | concentration at 2 h [3, 6] [ng/g] | SMILES | Relative Maximal Inhibition of CETP Activity to Pre-Administration (%) (CETP [2]) | Relative Increase HDL-C (%) to VC (Vehicle) (Blood HDL-C) [%] | Distribution between blood, liver and adipose tissues (in words) [3] |
| --- | --- | --- | --- | --- | --- | --- | --- |
| 2.1 |  |  |  | CCN(c1ncc(-c2ccsc2)cc1CN1C(=O)O[C@H](c2cc(C(F)(F)F)cc(C(F)(F)F)c2)[C@@H]1C)C1CCCCC1 [Example 77, (4S,5R)-5-[3,5-bis(trifluoromethyl)phenyl]-4-methyl-3-({[2-(ethyl)(cyclohexyl)amino]-5-(thiophen-3-yl)pyridin-3-yl}methyl)-oxazolidin-2-one] | 50 |  |  |
| 10.7 |  |  |  | CCN(c1ncc(N2CCCC2)cc1CN1C(=O)O[C@H](c2cc(C(F)(F)F)cc(C(F)(F)F)c2)[C@@H]1C)C1CCCCC1 [Example 88, (4S,5R)-5-[3,5-bis(trifluoromethyl)phenyl]-4-methyl-3-({[2-(ethyl)(cyclohexyl)amino]-5-(pyrrolidin-1-yl)pyridin-3-yl}methyl)-oxazolidin-2-one] | 45 |  |  |
| 7 |  |  |  | CCN(c1ncc(N2CCCC2C)cc1CN1C(=O)O[C@H](c2cc(C(F)(F)F)cc(C(F)(F)F)c2)[C@@H]1C)C1CCCCC1 (stereo partly drawn) [Example 89, (4S,5R)-5-[3,5-bis(trifluoromethyl)phenyl]-4-methyl-3-({[2-(ethyl)(cyclohexyl)amino]-5-(2-methyl-pyrrolidin-1-yl)pyridin-3-yl}methyl)-oxazolidin-2-one] | 53 |  |  |
